Source: patent US20110263516A1, “VASODILATOR” (CALPIS CO., LTD., priority 2006, published 2011)

Assays:
[1] = tested on: thoracic aorta ring of a Wistar rat; test: Vasodilating test on phenylephrine-preconstricted aorta ring (Magnus apparatus); format: cell-based; conditions: aorta ring preconstricted with 1 μM phenylephrine; for vasodilator response at 10 mM: FIG. 1; for concentration from which the vasodilator response was observed: ten-fold increasing concentrations from 10^-9 M, change in tension
Protocol: The thoracic aorta of a Wistar rat was taken out, cut into 2 mm long, and made into an aorta ring. The ring was set in a Magnus apparatus (product name “micro tissue organ bath MTB-1Z”, manufactured by LABO SUPPORT CO., LTD.), and allowed to equilibrate with a constant tension. The constriction response of the aorta ring was confirmed with 50 mM KCl.
Next, the aorta ring was preliminarily constricted with 1 μM phenylephrine, and VPP and IPP prepared in Synthesis Example were added at ten-fold increasing concentrations from 10^−9 M to observe the vasodilator response through the change in tension of the aorta ring. The dose dependency of the vasodilator response was also studied.
The vasodilating test was conducted in the same way as in Example 1, except that the tripeptides VPP and IPP were replaced with amino acids, valine (Val) and proline (Pro), at the same concentration.

[2] = tested on: blood vessel from which the vascular endothelium was physically removed; test: Confirmatory test for endothelium dependency of vasodilator response; format: cell-based, Wistar rat; conditions: endothelium-removed vessel compared with intact vessel; FIG. 2
Protocol: In order to confirm that the vasodilator effect of VPP and IPP was associated with the vascular endothelium, a vasodilating test similar to the above was conducted with VPP, using as a control a blood vessel from which the vascular endothelium was physically removed by a routine method.

Compound | vasodilator response at 10 mM [1] | concentration from which the vasodilator response was observed [1] [mM] | vasodilator response after removal of the endothelium [2]
O=C(O)[C@@H]1CCCN1 [Pro, proline, reference compound] | no vasodilator response was observed | – | –
CC(C)[C@H](N)C(=O)O [Val, valine, reference compound] | no vasodilator response was observed | – | –
Ile-Pro-Pro [IPP] | clear, transient vasodilator response | 1 | –
Val-Pro-Pro [VPP] | clear, transient vasodilator response | 1 | weakened
